Data taken from ChEMBL document CHEMBL1131896, “Probing the radical mechanism of galactose oxidase using an ultrafast radical probe” (Bioorg Med Chem Lett, 1999).

Columns and labels:
[1] = target: Galactose oxidase (Fusarium austroamericanum); experiment: Binding constant against Galactose oxidase (GOase)
[2] = system: Galactose oxidase (Fusarium austroamericanum); experiment: Inactivation rate constant against Galactose oxidase (GOase)

SMILES | Ki [1] | also measured
OC[C@H]1C[C@@H]1c1ccccc1 [listing 1 of 2 here] | 5.6 mM | –
OC[C@H]1C[C@@H]1c1ccccc1 [listing 2 of 2 here] | – | K inact [2]: 0.0026 s⁻¹
[2H]C([2H])(O)[C@H]1C[C@@H]1c1ccccc1 (relative stereo) | 5.1 mM | –
OC[C@H]1C[C@@H]1c1ccccc1 (relative stereo) | – | K inact ([2]; tested as the 2H-labelled form): 0.00082 s⁻¹
